Laboratory results from patent US20210276967A1 (OSPEDALE SAN RAFFAELE S.R.L., priority 2018, published 2021).

Assays:
HBV genotype E = test: Antiviral activity in HepG2 cells transfected with HBV genotype E plasmid, extracellular HBV DNA qPCR; format: cell-based; conditions: Hepatitis B virus, read-out: HBV inhibition EC50 (Mean ± StD)
Description: HepG2 hepatoma cells transfected with HBV plasmids corresponding to the different isolates were used to perform antiviral assay against different HBV genotypes. HBV plasmids were obtained by cloning fragment containing of 1.1-mer HBV genome into the SacI/SaII sites of pcDNA3.1zeo(−) plasmid (V86520, Thermofisher Scientific). The HepG2 cell line was maintained in DMEM, supplemented with 10% of FBS, 1% glutamine and 1% penicillin/streptomycin.
HBV inhibition activity was determined on different HBV genotypes. For this purpose plasmids pcDNA3.1Zeo(−)-HBV1.1 expressing HBV genotypes A, B, C, D, E were transfected in HepG2 cell line and extracellular HBV quantification was performed by direct qPCR as described above. In detail, cells were seeded at 20,000 cells/well in polylisine coated 96-multiwell plates and 24 h later HBV plasmids were transfected with lipofection using manufacturer's procedure (Lipofectamine 3000 Reagent, Thermofisher Scientific). Five hours after transfection cells were extensively washed with PBS and compounds were added in 8-point dose-response curve in 0.5% DMSO as described above. After 4 days of incubation at 37° C. cells were subjected to cell viability assays and extracellular HBV quantification, in order to evaluate both the cytotoxic potential and the anti-viral activity of compounds, as described above. […]

[1] = Hepatocytes stability, mouse; format: in vitro ADME; conditions: data not shown
[2] = Hepatocytes stability, human; format: in vitro ADME; conditions: data not shown
Description: Hepatic metabolism is often a major contributor to drug clearance from the body. Pooled cryopreserved human hepatocytes (commercially available for example from Bioreclamation IVT, LiverPool 20-donor Human Hepatocytes Product. No. X008000) are thawed and re-suspended in Hepatocyte Culture Medium (HCM) complete (commercially available, as for example from Lonza, HBM Hepatocytes Basal Medium Catalog No. CC-3199+HCM SingleQuots Catalog No. CC-4182). Compounds are diluted into the cell suspension (2.5 μl/2.5 mL, 1 million cells/mL) from 3 mM stock solution in DMSO to give a 3 μM concentration (0.1% DMSO). 150 μl (×2) of this mixture are taken and transferred into a 96-deep-well plate containing an equal volume of quenching solution (100% acetonitrile plus 0.1% formic acid) for time 0 incubation. […]
Stability is determined based on analysis of the disappearance of the compound as a function of incubation time, using area ratio (analyte peak area vs internal standard peak area). The elimination constant k is calculated by plotting mean disappearance values on a semi-logarithmic scale and fitting with a best fit linear regression. […] When the half-life could not be calculated, data are reported as: <0.5 or >4 hours. Intrinsic clearance given in μl/min/million cells is calculated using the Equation: Clint=KV/N. Where K=0.693/t1/2, V=incubation volume (ml) and N=number of hepatocytes/sample.

| SMILES | EC50 (HBV genotype E) [µM] | stability in mouse hepatocytes [1] | stability in human hepatocytes [2] |
| --- | --- | --- | --- |
| Cc1cc(N)c(S(N)(=O)=O)cc1C(=O)Nc1cc(F)c(F)c(F)c1 [Example E17, 4-amino-2-methyl-5-sulfamoyl-N-(3,4,5-trifluorophenyl)benzamide] | 0.0512 ± 0.0136 | – | – |
| Nc1ccc(C(=O)Nc2cc(F)c(F)c(F)c2)cc1S(N)(=O)=O [Example E3, 4-amino-3-sulfamoyl-N-(3,4,5-trifluorophenyl)benzamide] | – | stable | stable |
